In patent publication US20250144069A1, “BILOBALIDE DERIVATIVE COMPOUNDS FOR TREATING NEUROLOGICAL DISEASES AND CANCERS” (The Chinese University of Hong Kong, priority 2023, published 2025):
Counter-ions that a name gives are not always drawn. Like-named read-outs stand apart in the source and are kept apart here.

Assays:
A549 cells [1] = test: Single-dose CCK-8 cell viability screening (adherent cells); format: cell-based, human; details: Homo sapiens, A549 cells, 50 uM, 48 h, CCK-8, read-out: % Viability (50 uM, 48 h) A549
[2] = as above; format: cell-based, human; details: Homo sapiens, average of A549 and Jurkat % viability, 50 uM, 48 h
A549 cells [3] = test: Dose-dependent CCK8 viability assay; format: cell-based, human; details: Homo sapiens, A549, 48 h
Procedure: (§1) In this example, dose-dependent CCK8 Viability assay was performed to determine the IC50 (the concentration of compound to achieve 50% viability) of several of the hit compounds identified from Example 2. A variety of cell lines were used: • Jurkat cells: Human leukemia • A549 cells: Human NSCLC • KP-1 cells: Mouse NSCLC with KRAS and P53 mutations • MCF-7 cells: Human breast cancer
(§2) Method for Adherent Cells (A549, MCF-7 and KP-1 Cells)
(§3) 5000 cells/100 uL were seeded in 96-well plates and incubate at 37° C.+5% CO2 overnight. Media were replaced with 100 uL of compound per well in 6 replicates in a series of 2-fold dilutions. The following controls were prepared.
(§4) Blank control: 100 uL 0.1% DMSO in media with no cells per well.
(§5) Positive control: 100 uL of 10 uM 5-flurouracil per well.
(§6) Negative control: 100 uL of 0.1% DMSO in media per well.
(§7) Each 96-well plate included 1 compound in 7 concentrations and a complete set of controls (in 6 replicates).
(§8) Cells were incubated at 37° C.+5% CO2 for 46 hours. 10 uL of CCK8 solution was added to each well. Cells were incubated at 37° C.+5% CO2 for 2 hours. Absorbance at 450 nm was measured using a multiplate reader.
(§9) Viability was calculated using the equation: […]

Jurkat cells = test: Single-dose CCK-8 cell viability screening (suspension cells); format: cell-based, human; details: Homo sapiens, 48 h, Jurkat cells, 50 uM
KP-1 cells = test: Dose-dependent CCK8 viability assay; format: cell-based; details: Mus musculus, 48 hours
Procedure: as §1, §2, §3, §4, §5, §6, §7, §8, §9

GPX4 = GPX4 protein level by Western-blot; format: cell-based; details: HMC3, co-treated with RSL3 1 μM and compound 10, 5, 2.5 μM, 3 h
Text: As mentioned above, RSL3 treatment results in an oxidized environment in cells, which promotes the CMA to scavenge damaged proteins including GPX4 or glyceraldehyde-3-phosphate dehydrogenase (GAPDH), a well-known CMA substrate. To gain insights into the mechanism of action of bilobalide analogue XBB-037 against the RSL3-induced ferroptosis, HMC3 cells were pre-treated with RSL3, followed by treatment with or without bilobalide analogue XBB-037.
In FIN56 assay, HMC3 (300,000 cells per well on 6-well plate) was pre-treated with FIN56 (2.5, 1.25, 0.625 μM) for 2 h, followed by 8 h treatment of DMSO only (0.1%) or XBB-037 (50 μM). In RSL3 assay, HMC3 (300,000 cells per well on 6-well plate) was pre-treated with RSL3 (750, 500, 250 nM) for 2 h, followed by 4 h or 8 h treatment of DMSO only (0.1%) or XBB-037 (50 μM). […] Antibodies for GPX4 (52455, CST) was used at 1:500 dilution, β-Actin (AC026, ABclonal) was used at 1:400,000 dilution, GAPDH (AC035, ABclonal) was used at 1:3000 dilution. […] Band intensity was normalized by image lab software.
Now referring to FIGS. 7E-7F, GPX4 levels in HMC3 cells pre-treated with RSL3 are shown. Protein levels of GPX4 and […] at 0, 250, 500 or 750 nM RSL3 were measured by Western-blot. HMC3 cells were pretreated with RSL3 for 2 hours and then treated with or without 50 μM bilobalide analogue XBB-037 for 4 hours.
In addition to […], FIN56 was further used to investigate the GPX4 regulation of bilobalide analogue XBB-037. As mentioned above, FIN56 is a Class III ferroptosis inducer, which causes the depletion of cellular GPX4 levels without affecting GPX4 activity. In this experiment, HMC3 cells were pretreated with FIN56 for 2 hours and then treated with or without 50 μM XBB-037 for 8 hours. Protein levels were measured by Western-blotting using indicated antibodies. Data were plotted as mean±s.d., n=3 technical replicates. **p<0.01. Statistical analyses were performed by two-way ANOVA with multiple comparisons using Two-stage linear step-up procedure of Benjamini, Krieger and Yekutieli multiple comparisons test. […]

HMC3 cells [4] = test: Cytotoxicity, cell viability of HMC3 cells; format: cell-based; details: 24 h treatment
Text: Now referring to FIG. 11A, a chart showing the cell viability (%) of HMC3 cells treated with SXQ087-1, XBB-037 or bilobalide.

[5] = system: BV-2 murine microglial cell line; test: RSL3-induced ferroptosis model, cell viability (CCK-8)
Procedure: In this example, the anti-ferroptotic properties of the BB analogues described in preceding examples were evaluated by a RSL3-induced ferroptosis model. […] To evaluate the anti-ferroptosis activity of BB analogues, we developed a phenotypic screening based on RSL3-induced ferroptosis model on HT22 mouse hippocampal cell line, HMC3 microglial cell line and BV-2 murine microglial cell line which were co-treated or pre-treated with RSL3 and BB analogues for 2-24 h, and the cell viability was subsequently measured. […]
For phenotypic screening of bilobalide (BB) analogues, 5,000 cells per well (100 uL volume) of HT22, HMC3 or BV-2 cells were placed in 96-well plate and allowed to adhere for 22 h. […] Cell viability was measured using cell counting kit-8 (CCK-8) (MCE). […] Cell viability was measured after 22 h treatment by CCK-8. […] Cell viability was measured by CCK-8 using CLARIOstar monochromator multimode plate reader under 450 nm wavelength.
In this example, the cells were pre-treated with RSL3 (200 nM for HT22 and HMC3, 500 nM for BV-2) for two hours, followed by bilobalide analogues treatment (50 PM) for 22 hours. Cell viability was measured using cell counting kit-8 (CCK-8); n=5 technical replicates. […]

HMC3 cells [6] = format: cell-based
HMC3 cells [7] = test: Lipid peroxidation level by flow cytometry using C11-BODIPY; format: cell-based
Procedure: (§10) For flow cytometry, HMC3 cells (seeded 50,000 cells per well on 24-well plate one day prior to the experiment) were pretreated with 50 nM RSL3 for 2 h. […] After which medium was replaced with BODIPY™ 581/591C11 (10 μM, Invitrogen) or CellROX™ Green (5 μM, Invitrogen) for 30 min staining. Cells were then washed 3 times with PBS and collected. Fluorescence was measured by BD FACSympgony A5.2 SORP Flow Cell Analyzer (BD Biosciences).
Disequilibrium ROS level acts as a direct initiator of lipid peroxidation, which is one of the major hallmarks of ferroptosis. In this example, HMC3 cells according to the conditions in Table 4 were subjected to measurement of lipid peroxidation level using flow cytometry and the lipid peroxidation sensor C11-BODIPY.
For flow cytometry, HMC3 cells (seeded 50,000 cells per well on 24-well plate one day prior to the experiment) were pretreated with 50 nM RSL3 for 2 h. After RSL3 treatment, medium was replaced by DMSO (0.1%) only, SXQ087-1 (10, 5 and 2.5 μM), following by 3 h treatment. After which medium was replaced with BODIPY™ 581/591C11 (10 μM, Invitrogen) for 30 min staining. Cells were then washed 3 times with PBS and collected. Fluorescence was measured by BD FACSympgony A5.2 SORP Flow Cell Analyzer (BD Biosciences).
Lipid peroxidation is one of the major hallmarks of ferroptosis. In this example, HMC3 cells according to the conditions in Table 5 were subjected to measurement of lipid peroxidation level using flow cytometry and the lipid peroxidation sensor C11-BODIPY.

[8] = system: HT22 mouse hippocampal cell line; test: RSL3-induced ferroptosis model, cell viability (CCK-8)
Procedure: In this example, the anti-ferroptotic properties of the BB analogues described in preceding examples were evaluated by a RSL3-induced ferroptosis model. […] To evaluate the anti-ferroptosis activity of BB analogues, we developed a phenotypic screening based on RSL3-induced ferroptosis model on HT22 mouse hippocampal cell line, HMC3 microglial cell line and BV-2 murine microglial cell line which were co-treated or pre-treated with RSL3 and BB analogues for 2-24 h, and the cell viability was subsequently measured.
HMC3 cell line was maintained in Minimum Essential Medium (MEM, Gibco) supplemented with 1× non-essential amino acid (Gibco), 1 mM sodium pyruvate (Gibco), 10% fetal bovine serum (FBS) (Gibco) and 1% penicillin/streptomycin (Gibco). BV-2 cell line was maintained in Roswell Park Memorial Institute (RPMI) 1640 medium (Gibco) supplemented with 10% FBS and 1% penicillin/streptomycin, and HT22 cell line was maintained in Dulbecco's Modified Eagle's Medium (DMEM) (Gibco) supplemented with 10% FBS and 1% penicillin/streptomycin. All cells were incubated at 37° C. in a humidified atmosphere under 5% CO2.
For phenotypic screening of bilobalide (BB) analogues, 5,000 cells per well (100 uL volume) of HT22, HMC3 or BV-2 cells were placed in 96-well plate and allowed to adhere for 22 h. After which, cells were pre-treated with 200 nM (on HT22, HMC3) or 500 nM (on BV-2) of RSL3 (Bidepharm) for 2 h respectively. Medium was then replaced by 50 μM BB analogues and followed by 22 h incubation subsequently. Cell viability was measured using cell counting kit-8 (CCK-8) (MCE). For dose-response of BB analogues, RSL3, HT22 and HMC3 cells (seeded on 96-well plates at 5,000 cells per well) were treated with multiple doses of RSL3 for 2 h. […] Cell viability was measured after 22 h treatment by CCK-8. […] Cell viability was measured by CCK-8 using CLARIOstar monochromator multimode plate reader under 450 nm wavelength.
In this example, the cells were pre-treated with RSL3 (200 nM for HT22 and HMC3, 500 nM for BV-2) for two hours, followed by bilobalide analogues treatment (50 PM) for 22 hours. Cell viability was measured using cell counting kit-8 (CCK-8); n=5 technical replicates. […] Such effect was further investigated by treating the cell lines with various doses of RSL3.

[9] = cell free
[10] = system: HMC3 microglial cell line; test: RSL3-induced ferroptosis model, cell viability (CCK-8); format: cell-based
LC3-II/LC3-I = details: HMC3, co-treated with RSL3 1 μM and compound 10, 5, 2.5 μM, 3 h
Procedure: After incubation, cells were washed 3 times with ice-cold PBS and lysed in RIPA buffer containing 1× protease inhibitor cocktail (MCE) and nuclease (Biyotime) on ice for 30 min. All samples were centrifuged and then quantified by bicinchoninic acid (BCA) assay (Pierce). Cell lysates were diluted with Laemmli Sample Buffer (Bio-Rad) and heated at 95° C. for 5 min. Samples were separated by 12% SDS-PAGE and transferred to a polyvinylidene difluoride membrane. Membrane was incubated with 3% bovine serum albumin (BSA, Sigma-Aldrich) for 1 h, and subsequently incubated with indicated primary antibody overnight at 4° C. After incubation, membrane was washed by wash buffer (containing 20 mM Tris, 150 mM NaCl and 0.1% Tween 20), and incubated with peroxidase-conjugated secondary antibody at room temperature for 1 h. Antibodies for GPX4 (52455, Cell Signaling Technology) was used at 1:500 dilution, GAPDH (sc-32233, Santacruz) was used at 1:3000 dilution, LC3B (A19665, ABclonal) was used at 1:1000 dilution. Goat anti-rabbit IgG HRP-linked antibody (7074, CST) was used at 1:2500 dilution, goat anti-mouse IgG (H+L) secondary antibody DyLight™ 488 (35502, Invitrogen) was used at 1:5000 dilution. Blot was washed and visualized using Clarity Western ECL Substrate (Bio-Rad) with ChemiDoc MP Imaging System (Bio-Rad). Band intensity was normalized by image J software.

[11] = Hydrolytic stability in buffer monitored by LC-MS/MS
HMC3 cells [12] = test: Intracellular ROS level by CellROX (fluorescent imaging and flow cytometry); format: cell-based; details: HMC3, 50 nM RSL3 2 h, then 50 μM compound 3 h
Procedure: as §10
For fluorescent imaging, 10,000 cells per well of HMC3 were laid on cover slip and incubated overnight. After the same compound treatment as described above in this section, cells were subsequently incubated with CellROX™ Green and Hoechst 34580 (MCE) for 30 min. After incubation, cells were washed 3 times gently with PBS. Cover slips were then attached to glass slides by Anti-Fade Fluorescence Mounting Medium (Abcam) and imaged via ECLIPSE Ti fluorescence microscope (Nikon). Fluorescent intensity was quantified using imageJ software.
To further evaluate the anti-ferroptotic properties of bilobalide analogues, we tested its effect on the total level of intracellular reactive oxygen species (ROS), we performed fluorescent staining on the HMC3 cell line using CellROX, which is a probe which can emit green fluorescence after reacting with ROS. […]

[13] = buffer pH 7.4, within the first 10 hours

CC(C)(C)[C@]1(O)C[C@@H]2OC(=O)C[C@@]23C(=O)O[C@@H]2N(c4ccc(C(F)(F)F)cc4)C(=O)[C@H](OC(=O)c4ccccc4)[C@]213 [P-29, (3aS,5aS,8R,9R,10aS)-9-(tert-butyl)-9-hydroxy-2,4,7-trioxo-6-(4-(trifluoromethyl)phenyl)octahydro-4H,9H-furo [3″,2″:2′,3′]cyclopenta [1′,2′:3,4]furo [2,3-b]pyrrol-8-yl benzoate]
viability at 50 µM (A549 cells [1]; A549, 48 h): 46.7% | viability at 50 µM ([2]; A549, 48 h): 53.1% | IC50 (A549 cells [3]): 5.84 µM | viability at 50 µM (Jurkat cells; Jurkat, CCK-8, read-out: % Viability (50 uM, 48 h) Jurkat): 59.6%

CC(C)(C)[C@]1(O)C[C@@H]2OC(=O)C[C@@]23C(=O)O[C@@H]2N(CC4C5CC6CC(C5)CC4C6)C(=O)[C@H](OC(=O)c4ccc(CN)cc4)[C@]213 (stereo partly drawn) [SCC506, (3aS,5aS,8R,8aS,9R,10aS)-6-(((1S,3S)-adamantan-2-yl)methyl)-9-(tert-butyl)-9-hydroxy-2,4,7-trioxooctahydro-4H,9H-furo[3″,2″:2′,3′]cyclopenta[1′,2′:3,4]furo[2,3-b]pyrrol-8-yl 4-(aminomethyl)benzoate hydrochloride]
IC50 (KP-1 cells): 17.2 µM

CC(C)(C)[C@]1(O)C[C@@H]2OC(=O)C[C@@]23C(=O)O[C@@H]2N(CCc4ccc(O)c(O)c4)C(=O)[C@H](OC(=O)c4ccccc4)[C@]213 [SXQ087-1]
GPX4 level after RSL3 (GPX4): RSL3-induced GPX4 degradation was reduced | cytotoxicity (cell viability) (HMC3 cells [4]): no significant cytotoxicity | inhibition of RSL3-induced ferroptosis (phenotypic screening, cell viability) [5]: effectively inhibit ferroptosis | protection against FIN56-induced cell death (cell viability) (HMC3 cells [6]): effectively suppressed FIN56-induced cell death | protection against ML162 lethality (cell viability) (HMC3 cells [6]): alleviated the lethality of ML162 | protection against ML210 lethality (cell viability) (HMC3 cells [6]): alleviated the lethality of ML210 | protection against erastin-induced lethality (cell viability) (HMC3 cells [6]): suppressed erastin-induced lethality | lipid peroxidation level (C11-BODIPY) (HMC3 cells [7]): significant down-regulation of RSL3-induced lipid peroxidation accumulation in a dose-dependent manner | inhibition of RSL3-induced ferroptosis (phenotypic screening, cell viability) [8]: effectively inhibit ferroptosis | radical scavenging activity (relative radical level) [9]: significant dose-dependent radical scavenging activity | inhibition of RSL3-induced ferroptosis (phenotypic screening, cell viability) [10]: effectively inhibit ferroptosis | LC3-II/LC3-I ratio after RSL3 (LC3-II/LC3-I): increasing LC3-II/LC3-I ratio was also reduced

CC(C)(C)[C@]1(O)C[C@@H]2OC(=O)C[C@@]23C(=O)O[C@@H]2NC(=O)[C@H](O)[C@]213 [XBB-006, (3aS,5aS,8R,8aS,9R,10aS)-9-(tert-butyl)-8,9-dihydroxytetrahydro-4H,9Hfuro[3″,2″:2′,3′]cyclopenta[1′,2′:3,4]furo[2,3-b]pyrrole-2,4,7(3H,8H)-trione]
concentration remaining (hydrolytic stability) ([11]; buffer pH 6.8, after 20 hours): about 80% | concentration remaining (hydrolytic stability) [11, 13]: above 80% | viability at 50 µM (A549 cells [1]): 96.4% | viability at 50 µM [2]: 99.2% | viability at 50 µM (Jurkat cells; CCK-8, read-out: % Viability (50 uM, 48 h) Jurkat): 102%

CC(C)(C)[C@]1(O)C[C@@H]2OC(=O)C[C@@]23C(=O)O[C@@H]2OC(=O)[C@H](O)[C@]213 [bilobalide]
concentration remaining (hydrolytic stability) ([11]; buffer pH 6.8, after 20 hours): below 20% | concentration remaining (hydrolytic stability) [11, 13]: below 20% | cytotoxicity (cell viability) (HMC3 cells [4]): no significant cytotoxicity | lipid peroxidation level (C11-BODIPY) (HMC3 cells [7]; HMC3, 50 nM RSL3 2 h, then 50, 25 and 12.5 μM compound 3 h): no significant alteration | shift of RSL3 dose-dependent viability curve ([8]; HT22, multiple doses of RSL3, 50 μM compound): relatively marginal | shift of RSL3 dose-dependent viability curve ([10]; HMC3, multiple doses of RSL3, 50 μM compound): relatively marginal | intracellular ROS level (CellROX fluorescent staining) (HMC3 cells [12]): no reduction in ROS level
